Experimental data as given in ChEMBL document CHEMBL1201862, “PubChem BioAssay data set” (2004).
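Tested at 5 concentrations; 48 h exposure; 96-well plates; endpoints linearly interpolated, else capped at highest concentration. GI50: concentration for 50% inhibition of growth.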 The source made the active and inactive calls. Cut-off read from the data, not from the text of the source: active = GI50 up to about 1.1 µM and inactive = higher.

Key:
Test in all cases: NCI anticancer screen, dose series, 48 h
[1] = tested on: EKVX
[2] = tested on: MOLT-4
[3] = tested on: NCI-H460
[4] = tested on: COLO 205
[5] = tested on: NCI-H522
[6] = tested on: UACC-257
[7] = tested on: SNB-19
[8] = tested on: M14
[9] = tested on: NCI-H23
[10] = tested on: UACC-62
[11] = tested on: OVCAR-8
[12] = tested on: SK-OV-3
[13] = tested on: KM12
[14] = tested on: 786-0
[15] = tested on: A549
[16] = tested on: SW-620
[17] = tested on: SK-MEL-5

COc1cc(Cl)cc(O)c(=O)c1OC
GI50 [1]: 25.4 µM (inactive)
GI50 [2]: 15.8 µM (inactive)
GI50 [3]: 24.3 µM (inactive)
GI50 [4]: 28.7 µM (inactive)
GI50 [5]: 21.9 µM (inactive)
GI50 [6]: 48.8 µM (inactive)
GI50 [7]: 56.1 µM (inactive)
GI50 [8]: 41.8 µM (inactive)
GI50 [9]: 35.1 µM (inactive)
GI50 [10]: 24.4 µM (inactive)
GI50 [11]: 36.9 µM (inactive)
GI50 [12]: > 62.5 µM (inactive)
GI50 [13]: 72.8 µM (inactive)
GI50 [14]: 61.1 µM (inactive)

N#CCCN(CCC#N)c1ccc(/C=C2\N=C(CN3C(=O)c4ccccc4C3=O)OC2=O)cc1
GI50 [1]: > 100 µM (inactive)
GI50 [2]: > 100 µM (inactive)
GI50 [3]: > 100 µM (inactive)
GI50 [5]: 89.7 µM (inactive)
GI50 [6]: > 100 µM (inactive)
GI50 [7]: > 100 µM (inactive)
GI50 [8]: > 100 µM (inactive)
GI50 [15]: > 100 µM (inactive)
GI50 [10]: > 100 µM (inactive)
GI50 [11]: > 100 µM (inactive)
GI50 [12]: > 100 µM (inactive)
GI50 [16]: > 100 µM (inactive)
GI50 [13]: > 100 µM (inactive)
GI50 [17]: > 100 µM (inactive)
GI50 [14]: > 100 µM (inactive)

COC(=O)C1CC(c2ccc(Cl)cc2)=NO1 (stereo not drawn)
GI50 [1]: > 100 µM (inactive)
GI50 [2]: > 100 µM (inactive)
GI50 [3]: > 100 µM (inactive)
GI50 [4]: > 100 µM (inactive)
GI50 [5]: > 100 µM (inactive)
GI50 [6]: > 100 µM (inactive)
GI50 [8]: > 100 µM (inactive)
GI50 [15]: > 100 µM (inactive)
GI50 [9]: > 100 µM (inactive)
GI50 [10]: > 100 µM (inactive)
GI50 [11]: > 100 µM (inactive)
GI50 [12]: > 100 µM (inactive)
GI50 [16]: > 100 µM (inactive)
GI50 [13]: > 100 µM (inactive)
GI50 [17]: > 100 µM (inactive)
GI50 [14]: > 100 µM (inactive)

COc1ccc(/C=C/c2onc3c(=O)n(C)nc(-c4ccccc4)c23)cc1
GI50 [1]: > 100 µM (inactive)
GI50 [2]: > 100 µM (inactive)
GI50 [3]: > 100 µM (inactive)
GI50 [4]: > 100 µM (inactive)
GI50 [5]: 77.6 µM (inactive)
GI50 [7]: > 100 µM (inactive)
GI50 [8]: > 100 µM (inactive)
GI50 [15]: > 100 µM (inactive)
GI50 [9]: > 100 µM (inactive)
GI50 [10]: > 100 µM (inactive)
GI50 [11]: > 100 µM (inactive)
GI50 [12]: > 100 µM (inactive)
GI50 [16]: > 100 µM (inactive)
GI50 [17]: > 100 µM (inactive)
GI50 [14]: > 100 µM (inactive)

CCOC(=O)C1CC/C(=C(/C#N)C(=O)OC)N1 (stereo not drawn)
GI50 [1]: > 100 µM (inactive)
GI50 [2]: > 100 µM (inactive)
GI50 [3]: > 100 µM (inactive)
GI50 [4]: > 100 µM (inactive)
GI50 [5]: > 100 µM (inactive)
GI50 [6]: > 100 µM (inactive)
GI50 [7]: > 100 µM (inactive)
GI50 [8]: > 100 µM (inactive)
GI50 [15]: > 100 µM (inactive)
GI50 [9]: > 100 µM (inactive)
GI50 [10]: 31.8 µM (inactive)
GI50 [11]: > 100 µM (inactive)
GI50 [12]: 57.7 µM (inactive)
GI50 [16]: > 100 µM (inactive)
GI50 [13]: > 100 µM (inactive)
GI50 [17]: > 100 µM (inactive)
GI50 [14]: > 100 µM (inactive)

Cc1ccc(C2CC(c3ccco3)=NN2c2ccccc2)o1 (stereo not drawn)
GI50 [1]: > 100 µM (inactive)
GI50 [2]: > 100 µM (inactive)
GI50 [3]: > 100 µM (inactive)
GI50 [4]: > 100 µM (inactive)
GI50 [5]: > 100 µM (inactive)
GI50 [7]: > 100 µM (inactive)
GI50 [8]: > 100 µM (inactive)
GI50 [15]: > 100 µM (inactive)
GI50 [9]: > 100 µM (inactive)
GI50 [10]: > 100 µM (inactive)
GI50 [11]: > 100 µM (inactive)
GI50 [16]: > 100 µM (inactive)
GI50 [13]: > 100 µM (inactive)
GI50 [17]: > 100 µM (inactive)
GI50 [14]: > 100 µM (inactive)

COCc1c(CO)cnc(C)c1OC1OC(CO)C(O)C(O)C1O (stereo not drawn)
GI50 [1]: > 100 µM (inactive)
GI50 [2]: > 100 µM (inactive)
GI50 [3]: > 100 µM (inactive)
GI50 [5]: > 100 µM (inactive)
GI50 [6]: > 100 µM (inactive)
GI50 [7]: > 100 µM (inactive)
GI50 [8]: > 100 µM (inactive)
GI50 [15]: > 100 µM (inactive)
GI50 [10]: > 100 µM (inactive)
GI50 [11]: > 100 µM (inactive)
GI50 [12]: > 100 µM (inactive)
GI50 [16]: > 100 µM (inactive)
GI50 [13]: > 100 µM (inactive)
GI50 [17]: > 100 µM (inactive)
GI50 [14]: > 100 µM (inactive)

COc1ccc2cccc(C(=N)c3ccc(C)c4c3CCC4)c2c1
GI50 [1]: 15.5 µM (inactive)
GI50 [2]: 8.63 µM (inactive)
GI50 [3]: 4.3 µM (inactive)
GI50 [4]: 11.9 µM (inactive)
GI50 [5]: 3.72 µM (inactive)
GI50 [6]: 4.89 µM (inactive)
GI50 [7]: 11.2 µM (inactive)
GI50 [8]: 5.97 µM (inactive)
GI50 [15]: 13.7 µM (inactive)
GI50 [9]: 7.57 µM (inactive)
GI50 [10]: 4.18 µM (inactive)
GI50 [11]: 11.4 µM (inactive)
GI50 [12]: 14.5 µM (inactive)
GI50 [16]: 5.38 µM (inactive)
GI50 [13]: 10.2 µM (inactive)
GI50 [17]: 3.9 µM (inactive)
GI50 [14]: 10.2 µM (inactive)

CCCNCC(=O)O[C@]1(CC)C(=O)OCc2c1cc1n(c2=O)Cc2cc3ccccc3nc2-1
GI50 [1]: 25.1 µM (inactive)
GI50 [2]: < 0.01 µM (active)
GI50 [3]: < 0.01 µM (active)
GI50 [4]: 0.908 µM (active)
GI50 [5]: 0.0271 µM (active)
GI50 [6]: 0.163 µM (active)
GI50 [7]: 0.0364 µM (active)
GI50 [8]: 0.0681 µM (active)
GI50 [15]: 0.0322 µM (active)
GI50 [9]: 0.0149 µM (active)
GI50 [10]: < 0.01 µM (active)
GI50 [11]: 0.161 µM (active)
GI50 [12]: 0.0679 µM (active)
GI50 [13]: 0.528 µM (active)
GI50 [17]: 0.119 µM (active)
GI50 [14]: < 0.01 µM (active)

CC1(C)C(=O)/C=C\C(=O)C(C)(C)C2=CC=C(O2)C(C)(C)C(=O)/C=C\C(=O)C(C)(C)C2=CC=C1O2
GI50 [1]: > 100 µM (inactive)
GI50 [2]: > 100 µM (inactive)
GI50 [3]: > 100 µM (inactive)
GI50 [4]: > 100 µM (inactive)
GI50 [5]: > 100 µM (inactive)
GI50 [6]: > 100 µM (inactive)
GI50 [7]: > 100 µM (inactive)
GI50 [15]: > 100 µM (inactive)
GI50 [9]: > 100 µM (inactive)
GI50 [11]: > 100 µM (inactive)
GI50 [12]: > 100 µM (inactive)
GI50 [16]: > 100 µM (inactive)
GI50 [13]: > 100 µM (inactive)
GI50 [14]: > 100 µM (inactive)

C/N=C(\NC(=S)N(C)C)N(C)C
GI50 [1]: > 100 µM (inactive)
GI50 [2]: > 100 µM (inactive)
GI50 [3]: > 100 µM (inactive)
GI50 [5]: > 100 µM (inactive)
GI50 [6]: > 100 µM (inactive)
GI50 [7]: > 100 µM (inactive)
GI50 [8]: > 100 µM (inactive)
GI50 [15]: > 100 µM (inactive)
GI50 [9]: > 100 µM (inactive)
GI50 [10]: > 100 µM (inactive)
GI50 [11]: > 100 µM (inactive)
GI50 [12]: > 100 µM (inactive)
GI50 [16]: > 100 µM (inactive)
GI50 [13]: > 100 µM (inactive)
GI50 [17]: > 100 µM (inactive)
GI50 [14]: > 100 µM (inactive)

COC1=CC(=O)C2C(C1=O)C(c1ccc(OC)c(OC)c1)[C@H]2C (stereo partly drawn)
GI50 [1]: > 100 µM (inactive)
GI50 [2]: 7.71 µM (inactive)
GI50 [3]: > 100 µM (inactive)
GI50 [4]: 19.1 µM (inactive)
GI50 [5]: 12.8 µM (inactive)
GI50 [6]: 18.6 µM (inactive)
GI50 [7]: > 100 µM (inactive)
GI50 [8]: 19 µM (inactive)
GI50 [15]: > 100 µM (inactive)
GI50 [9]: 19.9 µM (inactive)
GI50 [10]: > 100 µM (inactive)
GI50 [11]: 20.6 µM (inactive)
GI50 [12]: > 100 µM (inactive)
GI50 [16]: 20 µM (inactive)
GI50 [13]: > 100 µM (inactive)
GI50 [17]: 22.4 µM (inactive)
GI50 [14]: 18 µM (inactive)

COC(=O)c1cc(O)ccc1O [METHYL 2,5-DIHYDROXYBENZOATE]
GI50 [1]: > 100 µM (inactive)
GI50 [2]: > 100 µM (inactive)
GI50 [3]: > 100 µM (inactive)
GI50 [4]: > 100 µM (inactive)
GI50 [5]: 93.1 µM (inactive)
GI50 [6]: > 100 µM (inactive)
GI50 [7]: > 100 µM (inactive)
GI50 [8]: > 100 µM (inactive)
GI50 [15]: > 100 µM (inactive)
GI50 [10]: > 100 µM (inactive)
GI50 [11]: > 100 µM (inactive)
GI50 [12]: > 100 µM (inactive)
GI50 [16]: > 100 µM (inactive)
GI50 [13]: > 100 µM (inactive)
GI50 [17]: > 100 µM (inactive)
GI50 [14]: > 100 µM (inactive)
